Laboratory results from patent US20100239501A1, “GENE SENSITIVE TO BONE/JOINT DISEASE AND USE THEREOF” (RIKEN, priority 2007, published 2010).

How the values were obtained:
[1] = molecular target: T1, EDG7 (Homo sapiens, UniProt Q9UBY5); details: no test described; cited from earlier work
T1 sequence (Q9UBY5 1-353): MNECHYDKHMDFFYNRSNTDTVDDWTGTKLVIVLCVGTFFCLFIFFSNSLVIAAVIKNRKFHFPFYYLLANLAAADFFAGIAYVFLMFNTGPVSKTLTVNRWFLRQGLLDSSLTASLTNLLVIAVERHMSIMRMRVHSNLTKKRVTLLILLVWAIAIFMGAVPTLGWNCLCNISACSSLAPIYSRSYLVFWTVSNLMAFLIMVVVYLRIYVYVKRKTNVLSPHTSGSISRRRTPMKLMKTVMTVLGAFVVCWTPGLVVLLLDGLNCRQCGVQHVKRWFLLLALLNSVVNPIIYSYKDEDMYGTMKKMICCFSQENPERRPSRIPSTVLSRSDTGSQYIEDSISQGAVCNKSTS

[2] = molecular target: T2, EDG2 (Homo sapiens, UniProt Q92633); experiment: Intracellular Ca2+ concentration (FLIPR tetra) in McA-RH7777 cells stably expressing EDG2; type: cell-based; set-up: Dainippon Pharmaceutical Co., Ltd. (cells); host or cells: McA-RH7777; details: LPA 0.3 μM, Ki16425 10^−8 to 10^−5 M added previously
Procedure: A forcible expression vector comprising an ORF sequence of human EDG2 [hEDG2-pcDNA3.1(+)] was purchased from UMR cDNA Resource Center. This plasmid was introduced into McA-RH7777 (Dainippon Pharmaceutical Co., Ltd.) using Lipofectamine LTX (Invitrogen), and the cells were cultured in a medium containing Geneticin for 14 to 20 days to acquire cells that stably express EDG2.
Next, an evaluation was made using FLIPR tetra (Molecular Devices) to confirm that stimulation with LPA raised intracellular Ca concentrations via the EDG2 expressed. That is, these cells were seeded to a 384-well plate, 0.03 to 10 μM LPA (Sigma) was added to each well, and it was confirmed that rises in intracellular Ca^2+ concentration occurred. LPA dose-dependently.

[3] = molecular target: T2, EDG2; experiment: IL6 gene expression in LPA-stimulated HFLS-OA treated with EDG2 antagonist; type: cell-based; set-up: OA patient-derived fibroblast-like synovial cells (HFLS-OA) were purchased from Cell application Co; host or cells: HFLS-OA (OA patient-derived fibroblast-like synovial cells); details: Ki16425 0, 0.3, 1, 3, 10 and 33 μM for 30 minutes, then 10 μM LPA, 2 hours, n=4
Procedure: Furthermore, the involvement of EDG2 in the LPA-induced inflammatory cytokine raising reaction in human OA synovial cells was analyzed using an antagonist against EDG2. […] As the EDG2 antagonist, Ki16425 (Sigma) was used. OA patient-derived fibroblast-like synovial cells (HFLS-OA) were purchased from Cell application Co. The HFLS-OA was cultured using the attached Synoviocyte growth medium. The number of passages for the cells used was 4 or 5. The HFLS-OA was seeded to a 24-well plate at a ratio of 1×10^5 cells/well, and cultured using the attached Synoviocyte growth medium until they became confluent. Twelve hours before performing LPA stimulation, the medium was replaced with Ham's F-12 (Invitrogen) medium containing 0.1% fatty acid free bovine serum albumin (Sigma). Twelve hours after the medium replacement, the cells were treated with Ki16425 (0, 0.3, 1, 3, 10 and 33 μM) for 30 minutes. Thereafter, the cells were stimulated with 10 μM LPA; 2 hours later, total RNA was extracted using ISOGEN (Nippon Gene), and the amount expressed of the IL6 gene was quantified by a method in accordance with Example 10 (n=4).

[4] = tested on: transcriptional factor AP-1; experiment: AP-1 cis-reporter luciferase assay in PMA-stimulated E11 cells; type: cell-based, human; details: 0.1, 1 and 10 ng/ml PMA, 24 hours after stimulation, n=2
From the text: Because the EDG2 gene is an LPA receptor that is dominant in OA synovial membrane, it was decided to perform a functional analysis of OA susceptibility polymorphs using synovial cells. E11 cells are a cell line established by immortalizing fibroblast-like cells from a rheumatoid arthritis patient synovial membrane with simian SV40 large T antigen (Abe et al, J Rheumatol. 1997 March; 24(3):420-9.). In the 5′-flanking region of EDG2, where i-EDG2-09 and 12 are present, an AP-1-binding motif is present. […] The method used is described below. The E11 cells were cultured using Dulbecco's Modified Eagle's Medium (DMEM, Sigma) containing 10% fetal bovine serum (FBS), antibiotics (100 U/ml penicillin G and 100 μg/ml streptomycin) and L-glutamine ([…]). On the day before the transfection, the E11 cells were seeded to a 24-multiwell plate to obtain a cell density of 5×10^4 cells/well. The following day, using Fugene-6 (Roche diagnostics), 200 ng of the reporter construct and 4 ng of pRL-TK (Promega) as the internal standard for correction of transfection efficiency, per well were transfected. Twenty-four after the transfection, the cells were cultured on a medium containing 0.1, 1 and 10 ng/ml PMA. Twenty-four hours after the stimulation, the cells were solubilized, and luciferase activity was measured using PicaGene Dual SeaPansy System (Toyo Ink). The number of cases was n=2.

[5] = tested on: EDG2 gene transcription activity (i-EDG2-09 region); experiment: i-EDG2-09 luciferase reporter assay in PMA-stimulated E11 cells; type: cell-based, human; details: both constructs (G allele and A allele), 10 ng/ml PMA, 5 hours after stimulation
From the text: An AP-1-binding motif described in a report by Duncliffe et al. [Immunity. […] 28; 276(52):48871-8.] is present 11 to 16 by upstream. The existence of a transcriptional factor-binding motif where AP-1 and NFAT are located in tandem is known in a plurality of genes [Macian F, Lopez-Rodriguez C and Rao A., Oncogene. 2001 Apr. 30; 20(19):2476-89. Review.]. Meanwhile, in the surrounding sequence, including i-EDG2-12, no distinct transcriptional factor binding sequence was found. […] Oligonucleotides (sense strand and antisense strand) wherein 4 bp at the restriction endonuclease NheI adhesion end is added on the 5′ side of a region centering at i-EDG2-09, and comprising the AP-1 and NFAT-binding motifs (a region at −2809 to −2839 from the transcription initiation point of EDG2), and 4 bp at the XbaI adhesion end is added on the 3′ side, were prepared for both alleles of i-EDG2-09 (G or A). After these oligonucleotides were converted to double-stranded DNAs for each allele, reporter constructs wherein each allele was integrated in tandem 5 times in the NheI site of the pGL3-promoter vector (Promega), which is a luciferase reporter vector, while retaining the orientation were prepared for G allele and A allele. […] Five hours after the stimulation, the cells were solubilized, and luciferase activity was measured using the PicaGene Dual SeaPansy System (Toyo Ink). […]

[6] = tested on: synovial cell line E11 cells; experiment: EDG2 gene expression in PMA-stimulated E11 cells (quantitative real-time PCR); type: cell-based, human; details: PMA 10 ng/ml, from 2 hours to 12 hours after addition, n=4
Procedure: To analyze the expression of the four LPA receptors examined in Example 10 in joint tissue, an expression quantitation analysis by quantitative real-time PCR was performed on articular cartilages and synovial tissues of knee OA patients. The method used was in accordance with Example 10. Total RNA was extracted from each tissue (articular cartilage n=4, synovial membrane n=3) using Isogen (Nippon Gene), and reverse transcription was performed on 500 ng of total RNA using Multiscribe reverse transcriptase (Applied biosystems) and a random hexamer, whereby a cDNA was obtained. Quantitation of the LPA receptor genes was performed using QuantiTect STBR Green PCR (Qiagen) on the ABI PRISM 7700 sequence detection system (Applied biosystems) as directed in the documentation attached. The number of copies of each gene was calculated using a working curve. The amount of each gene was standardized by being divided by the number of copies of the G3PDH gene. A Toyobo product was used as the primer for the G3PDH gene. […] The amount of the EDG2 gene expressed was higher in synovial membrane at a level about 10 times as high as in articular cartilage. […]
The method used is described below. […] In these total RNAs, the amount expressed of the EDG2 gene relative to G3PDH was measured in accordance with the method described in Example 11. […]

[7] = tested on: EDG2; experiment: EDG2 knockdown by siRNA in LPA-stimulated HFLS-OA; type: cell-based, human; details: n=4
Procedure: To analyze the involvement of EDG2 in the LPA-induced inflammatory cytokine raising reaction in human OA synovial cells, obtained in Example 17, an investigation using an siRNA was performed. The method used is described below. An siRNA against EDG2 was designed by utilizing an siRNA design support system available from the Takara Bio Web site (http://bio.takara.co.jp). Synthesis of the siRNA was outsourced to Takara Bio. The control siRNA used was such that the sequence of an siRNA against asporin was scrambled. OA patient-derived fibroblast-like synovial cells (HFLS-OA) were purchased from Cell application Co. The HFLS-OA was cultured using the attached Synoviocyte growth medium. The number of passages for the cells used was 4 or 5. The HFLS-OA was seeded to a 24-well plate at a ratio of 1×10^5 cells/well, and cultured using the attached Synoviocyte growth medium. The following day, the siRNA against EDG2 was introduced into the HFLS-OA to obtain a final concentration of 11 nM, using the Trans-IT-TKO transfection regent (Mirus Co.), according to the attached protocol. […] Twelve hours after the medium replacement, the cells were stimulated with 10 μM LPA; 2 hours later, total RNA was extracted using ISOGEN (Nippon Gene), and the amount of the IL6 gene expressed was quantified by a method in accordance with Example 10 (n=4).

T2 sequence (Q92633 whole entry): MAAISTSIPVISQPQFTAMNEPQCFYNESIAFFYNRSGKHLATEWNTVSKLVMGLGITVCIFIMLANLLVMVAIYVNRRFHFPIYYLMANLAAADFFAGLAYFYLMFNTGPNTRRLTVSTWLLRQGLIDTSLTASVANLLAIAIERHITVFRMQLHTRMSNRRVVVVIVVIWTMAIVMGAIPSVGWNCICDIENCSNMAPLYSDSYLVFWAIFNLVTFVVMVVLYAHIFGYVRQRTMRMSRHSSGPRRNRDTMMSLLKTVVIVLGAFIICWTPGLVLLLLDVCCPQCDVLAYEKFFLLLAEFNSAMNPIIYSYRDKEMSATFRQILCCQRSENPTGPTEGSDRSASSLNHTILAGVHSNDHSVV

Cc1noc(-c2ccc(CSCCC(=O)O)cc2)c1NC(=O)OC(C)c1ccccc1Cl (centres unmarked) [Ki16425]
antagonist activity against EDG7 [1]: antagonist activity
suppression of elevation of intracellular Ca2+ concentration by LPA stimulation [2]: suppressed dose-dependently
suppression of the rise in the expression of the IL6 gene by LPA [3]: dose-dependently

CCCCCCCCCCCCCC(=O)O[C@@H]1[C@@H](C)[C@@]2(O)[C@@H](C=C(CO)C[C@]3(O)C(=O)C(C)=C[C@@H]23)[C@@H]2C(C)(C)[C@]12OC(C)=O [PMA, phorbol 12-myristate 13-acetate]
luciferase activity (AP-1 binding motif reporter) [4]: rose PMA dose-dependently
luciferase activity of i-EDG2-09 reporter constructs [5]: rose significantly
amount expressed of the EDG2 gene relative to G3PDH [6]: rose over time

siRNA against EDG2: siRNA used in EDG2 knockdown; sense GAAAUGAGCGCCACCUUUATT (SEQ ID NO 40), antisense UAAAGGUGGCGCUCAUUUCTT (SEQ ID NO 41) (chemistry not given here)
amount expressed of the IL6 gene, which rises in response to LPA ([7]; siRNA 11 nM, 10 μM LPA, 2 hours): significantly suppressed
amount of EDG2 expressed ([7]; siRNA final concentration 11 nM): significantly suppressed
